Measured values reported in patent publication US20110105509A1 (Wyeth, LLC, priority 2009, published 2011).
pIC50: −log10 of the molar value.

These compounds were tested against T1, CRTH2 (Homo sapiens, UniProt Q9Y5Y4) (assay: FRET based competitive immunoassay (cAMP) in CRTH2 expressing CHO cells). Conditions: CRTH2 expressing CHO cells incubated with forskolin and PGD2; Eu3+ cryptate-labeled anti-cAMP and d2-labeled cAMP.
T1 construct: expressed in transfected cells; host or cells: CHO cells
T1 sequence (Q9Y5Y4 1-395): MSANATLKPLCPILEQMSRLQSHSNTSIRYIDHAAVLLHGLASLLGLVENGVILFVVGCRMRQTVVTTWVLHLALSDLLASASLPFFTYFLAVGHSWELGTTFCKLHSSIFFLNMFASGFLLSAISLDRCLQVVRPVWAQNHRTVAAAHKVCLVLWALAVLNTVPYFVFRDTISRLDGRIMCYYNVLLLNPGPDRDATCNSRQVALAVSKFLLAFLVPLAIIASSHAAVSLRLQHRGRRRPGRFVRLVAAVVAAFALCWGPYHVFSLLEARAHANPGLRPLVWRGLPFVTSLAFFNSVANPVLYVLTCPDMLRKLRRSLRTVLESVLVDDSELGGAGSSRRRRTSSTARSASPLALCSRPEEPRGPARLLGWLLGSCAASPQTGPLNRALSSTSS
Type: cell-based
Protocol: FRET Assay: To evaluate potency compounds were tested in a FRET based competitive immunoassay in which CRTH2 expressing CHO cells were incubated in the presence of forskolin and PGD2 along with Eu3+ cryptate-labeled anti-cAMP and d2-labeled cAMP.
`Cc1c(-c2nn(Cc3ccc(C(F)(F)F)c(F)c3)c(=O)c3ccccc23)c2cc(Cl)ccc2n1CC(=O)O` [Example 3, 2-(5-Chloro-3-(3-(3-fluoro-4-(trifluoromethyl)benzyl)-4-oxo-3,4-dihydrophthalazin-1-yl)-2-methyl-1H-indol-1-yl)acetic acid] gave a pIC50 of 7.24.
Work on `Cc1c(-c2nn(Cc3ccccn3)c(=O)c3ccccc23)c2cc(F)ccc2n1CC(=O)O` [Example 136, 2-(5-fluoro-2-methyl-3-(4-oxo-3-(pyridin-2-ylmethyl)-3,4-dihydrophthalazin-1-yl)-1H-indol-1-yl)acetic acid] yielded a pIC50 of 8.40.
Compound `Cc1c(-c2nn(Cc3ccncc3)c(=O)c3ccccc23)c2cc(F)ccc2n1CC(=O)O` [Example 134, 2-(5-fluoro-2-methyl-3-(4-oxo-3-(pyridin-4-ylmethyl)-3,4-dihydrophthalazin-1-yl)-1H-indol-1-yl)acetic acid] has a pIC50 of 8.52.
With `Cc1c(Cc2ccc(=O)n(Cc3ccc(C(F)(F)F)cc3)n2)c2cc(F)ccc2n1CC(=O)O` [Example 82, 2-(5-fluoro-2-methyl-3-((6-oxo-1-(4-(trifluoromethyl)benzyl)-1,6-dihydro-pyridazin-3-yl)methyl)-1H-indol-1-yl)acetic acid] the pIC50 was 7.80.
`Cc1c(-c2ccc(=O)n(Cc3ccccc3)n2)c2cc(Cl)cc(F)c2n1CC(=O)O` [Example 10, 2-(3-(1-Benzyl-6-oxo-1,6-dihydropyridazin-3-yl)-5-chloro-7-fluoro-2-methyl-1H-indol-1-yl)acetic acid] gave a pIC50 of 6.97.
Work on `Cc1c(-c2nn(Cc3nc4ccccc4s3)c(=O)c3ccccc23)c2cc(F)ccc2n1CC(=O)O` [Example 110, 2-(3-(3-(Benzo[d]thiazol-2-ylmethyl)-4-oxo-3,4-dihydrophthalazin-1-yl)-5-fluoro-2-methyl-1H-indol-1-yl)acetic acid] yielded a pIC50 of 8.15.
With `Cc1c(-c2ccc(=O)n(Cc3cc(F)ccc3F)n2)c2cc(Cl)ccc2n1CC(=O)O` [Example 67, 2-(5-chloro-3-(1-(2,5-difluorobenzyl)-6-oxo-1,6-dihydropyridazin-3-yl)-2-methyl-1H-indol-1-yl)acetic acid] the pIC50 was 7.64.
In the case of `Cc1c(-c2ccc(=O)n(Cc3ccccc3)c2)c2cc(F)ccc2n1CC(=O)NS(C)(=O)=O` [Example 313, 2-(3-(1-Benzyl-6-oxo-1,6-dihydropyridin-3-yl)-5-fluoro-2-methyl-1H-indol-1-yl)-N-(methyl-sulfonyl)acetamide], the pIC50 was 7.49.
`Cc1c(-c2nn(Cc3cc(F)ccc3F)c(=O)c3ccccc23)c2cc(Cl)ccc2n1CC(=O)O` [Example 59, 2-(5-Chloro-3-(3-(2,5-difluorobenzyl)-4-oxo-3,4-dihydrophthalazin-1-yl)-2-methyl-1H-indol-1-yl)acetic acid] gave a pIC50 of 7.92.
In the case of `Cc1ccc(Cn2nc(-c3c(C)n(CC(=O)O)c4ccccc34)c3ccccc3c2=O)cc1` [Example 173, 2-(2-methyl-3-(3-(4-methylbenzyl)-4-oxo-3,4-dihydrophthalazin-1-yl)-1H-indol-1-yl)acetic acid], the pIC50 was 7.12.
For `Cc1c(-c2nn(CC(C)C)c(=O)c3ccccc23)c2cc(F)ccc2n1CC(=O)O` [Example 327, {5-fluoro-2-methyl-3-[3-(2-methylpropyl)-4-oxo-3,4-dihydrophthalazin-1-yl]-1H-indol-1-yl}acetic acid], the pIC50 was 7.89.
`Cc1c(-c2ccc(=O)n(Cc3ccc(F)cc3F)c2)c2cc(F)ccc2n1CC(=O)O` [Example 273, 2-(3-(1-(2,4-difluorobenzyl)-6-oxo-1,6-dihydropyridin-3-yl)-5-fluoro-2-methyl-1H-indol-1-yl)acetic acid] showed a pIC50 of 7.55.
For `Cc1c(-c2nn(Cc3ccccc3)c(=O)c3ccccc23)c2cc(F)cc(S(C)(=O)=O)c2n1CC(=O)O` [Example 237, 2-(3-(3-benzyl-4-oxo-3,4-dihydrophthalazin-1-yl)-5-fluoro-2-methyl-7-(methyl-sulfonyl)-1H-indol-1-yl)acetic acid], the pIC50 was under 6.00.
Work on `Cc1c(-c2nn(-c3ccc(C(F)(F)F)cc3)c(=O)c3ccccc23)c2cc(F)ccc2n1CC(=O)O` [Example 206, 2-(5-fluoro-2-methyl-3-(4-oxo-3-(4-(trifluoromethyl)phenyl)-3,4-dihydrophthalazin-1-yl)-1H-indol-1-yl)acetic acid] yielded a pIC50 of 6.49.
`Cc1c(-c2ccc(=O)n(Cc3ccccc3)c2)c2cc(F)ccc2n1CC(=O)O` [Example 265, 2-(3-(1-benzyl-6-oxo-1,6-dihydropyridin-3-yl)-5-fluoro-2-methyl-1H-indol-1-yl)acetic acid] was tested, and the pIC50 was 8.30.
`Cc1c(CC2=NN(CCCC(F)(F)F)C(=O)CC2)c2cc(F)ccc2n1CC(=O)O` [Example 58, 2-(5-Fluoro-2-methyl-3-((6-oxo-1-(4,4,4-trifluorobutyl)-1,4,5,6-tetrahydro-pyridazin-3-yl)methyl)-1H-indol-1-yl)acetic acid] was tested, and the pIC50 was 7.74.
Work on `Cc1c(-c2ccc(=O)n(CC(F)(F)F)n2)c2ccccc2n1CC(=O)O` [Example 185, 2-(2-methyl-3-(6-oxo-1-(2,2,2-trifluoroethyl)-1,6-dihydropyridazin-3-yl)-1H-indol-1-yl)acetic acid] yielded a pIC50 of under 6.00.
Work on `Cc1c(-c2cn(CCc3ccccc3)c(=O)c3c2CCCC3)c2cc(F)ccc2n1CC(=O)O` [Example 93, 2-(5-fluoro-2-methyl-3-(1-oxo-2-phenethyl-1,2,5,6,7,8-hexahydro-iso-quinolin-4-yl)-1H-indol-1-yl)acetic acid] yielded a pIC50 of 7.68.
Work on `Cc1c(-c2ccc(=O)n(Cc3ccc(F)cc3F)n2)c2cc(Cl)ccc2n1CC(=O)O` [Example 68, 2-(5-chloro-3-(1-(2,4-difluorobenzyl)-6-oxo-1,6-dihydropyridazin-3-yl)-2-methyl-1H-indol-1-yl)acetic acid] yielded a pIC50 of 8.00.
For `CCC(O)(CC)Cn1nc(-c2c(C)n(CC(=O)O)c3ccc(F)cc23)c2ccccc2c1=O` [Example 128, 2-(3-(3-(2-ethyl-2-hydroxybutyl)-4-oxo-3,4-dihydrophthalazin-1-yl)-5-fluoro-2-methyl-1H-indol-1-yl)acetic acid], the pIC50 was 8.22.
Compound `Cc1c(-c2cn(Cc3ccccc3)c(=O)c3ccccc23)c2ccccc2n1CC(=O)O` [Example 247, 2-(3-(2-benzyl-1-oxo-1,2-dihydroisoquinolin-4-yl)-2-methyl-1H-indol-1-yl)-acetic acid] has a pIC50 of 7.92.
Compound `Cc1c(Cc2ccc(=O)n(Cc3ccc(F)cc3)c2)c2ccccc2n1CC(=O)O` [Example 40, 2-(3-((1-(4-Fluorobenzyl)-6-oxo-1,6-dihydropyridin-3-yl)methyl)-2-methyl-1H-indol-1-yl)acetic acid] has a pIC50 of 7.52.
Work on `Cc1c(CC2=NN(Cc3ccc(F)cc3F)C(=O)CC2)c2cc(F)ccc2n1CC(=O)O` [Example 56, 2-(3-((1-(2,4-Difluorobenzyl)-6-oxo-1,4,5,6-tetrahydropyridazin-3-yl)methyl)-5-fluoro-2-methyl-1H-indol-1-yl)acetic acid] yielded a pIC50 of 8.30.
`Cc1c(-c2ccc(=O)n(Cc3ccc(S(C)(=O)=O)cc3)n2)c2cc(F)ccc2n1CC(=O)O` [Example 73, 2-(5-fluoro-2-methyl-3-(1-(4-(methylsulfonyl)benzyl)-6-oxo-1,6-dihydro-pyridazin-3-yl)-1H-indol-1-yl)acetic acid] showed a pIC50 of 7.12.
Work on `Cc1c(Cc2ccc(=O)n(Cc3cc(F)c(F)cc3F)c2)c2cc(F)ccc2n1CC(=O)O` [Example 23, 2-(5-Fluoro-2-methyl-3-((6-oxo-1-(2,4,5-trifluorobenzyl)-1,6-dihydro-pyridin-3-yl)methyl)-1H-indol-1-yl)acetic acid] yielded a pIC50 of 7.77.
`Cc1c(-c2cn(CC(F)(F)F)c(=O)c3ccccc23)c2ccccc2n1CC(=O)O` [Example 251, 2-(2-methyl-3-(1-oxo-2-(2,2,2-trifluoroethyl)-1,2-dihydroisoquinolin-4-yl)-1H-indol-1-yl)acetic acid] was tested, and the pIC50 was 6.69.
`Cc1c(-c2nn(CC(F)(F)F)c(=O)c3ccccc23)c2cc(F)ccc2n1CC(=O)O` [Example 124, 2-(5-fluoro-2-methyl-3-(4-oxo-3-(2,2,2-trifluoroethyl)-3,4-dihydro-phthalazin-1-yl)-1H-indol-1-yl)acetic acid] showed a pIC50 of 8.10.
Work on `Cc1c(-c2ccc(=O)n(Cc3ccccc3F)n2)c2ccccc2n1CC(=O)O` [Example 190, 2-(3-(1-(2-fluorobenzyl)-6-oxo-1,6-dihydropyridazin-3-yl)-2-methyl-1H-indol-1-yl)acetic acid] yielded a pIC50 of 6.06.
In the case of `Cc1c(-c2ccc(=O)n(Cc3ccc4ccccc4n3)n2)c2cc(Cl)ccc2n1CC(=O)O` [Example 144, 2-(5-chloro-2-methyl-3-(6-oxo-1-(quinolin-2-ylmethyl)-1,6-dihydro-pyridazin-3-yl)-1H-indol-1-yl)acetic acid], the pIC50 was 7.96.
For `COc1ccc2c(c1)c(-c1ccc(=O)n(CC(F)(F)F)c1)c(C)n2CC(=O)O` [Example 298, 2-(5-methoxy-2-methyl-3-(6-oxo-1-(2,2,2-trifluoroethyl)-1,6-dihydropyridin-3-yl)-1H-indol-1-yl)acetic acid], the pIC50 was under 5.70.
Work on `Cc1c(-c2ccc(=O)n(Cc3cccc(F)c3F)c2)c2cc(F)ccc2n1CC(N)=O` [Example 301, 2-(3-(1-(2,3-difluorobenzyl)-6-oxo-1,6-dihydropyridin-3-yl)-5-fluoro-2-methyl-1H-indol-1-yl)acetamide] yielded a pIC50 of under 5.70.
`Cc1c(-c2cn(CCC(C(F)(F)F)C(F)(F)F)c(=O)c3ccccc23)c2cc(F)ccc2n1CC(=O)O` [Example 96, 2-(5-fluoro-2-methyl-3-(1-oxo-2-(4,4,4-trifluoro-3-(trifluoromethyl)butyl)-1,2-dihydroisoquinolin-4-yl)-1H-indol-1-yl)acetic acid] showed a pIC50 of 6.53.
